Measurements from the supplement of paper PMC11208160.

Experiment: recombinant barcode read abundance after kanamycin selection (control-corrected) (log10(CPM+1)); higher = more efficient recombination; sequences stand for … in AGTGCAGAGAAAATCGGCCAGTTTTCTCTGCCTGCAGTCCGCATGCCGT…AGATTTATGCAGCGGACTGCCTTTCTCCCAAAGTGATAAACCGGACAGTATCATGGACCGGTTTTCCCGGTAATCCGTATTTGCAAGGTTGGTTTCACT; site = the 11-nt target
In short: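 Values are log10(CPM+1) from a pooled E. coli screen of targets paired with IS621 bridge RNA target-binding loops. Recombination efficiency here means counts per million of recombinant-junction barcodes, averaged and control-corrected. Plates were chloramphenicol/ampicillin LB agar for the control and chloramphenicol/ampicillin/kanamycin with 0.1 mM IPTG, two replicates each.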
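Further: IS621 recombinase and bridge RNA in Escherichia coli cells.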

Sequence	recombinant barcode read abundance (log10)
GACCACCCTTGGGTTCTAACCTGTTGCGG (site ATCCACCCTCC)	1.14
GACCACCCTTGGGTTCTAACCTGTTGCGG (site GACCACCCTCC)	2.85
GACCCTACTTGGGTTCTAACCTGTTGCCT (site AACCCTACTAG)	0.111
GACCCTACTTGGGTTCTAACCTGTTGCCT (site CACCCTACTAG)	0.375
GACCCTACTTGGGTTCTAACCTGTTGCCT (site GACCCTACTAG)	0.516
GACCCTACTTGGGTTCTAACCTGTTGCCT (site TACCCTACTAG)	0.119
GACCGGGCTTGGGTTCTAACCTGTTGCCT (site GACCGAGCTAG)	0.092
GACCGGGCTTGGGTTCTAACCTGTTGCCT (site GACCGCGCTAG)	0.234
GACCGGGCTTGGGTTCTAACCTGTTGCCT (site GACCGGGCTAG)	0.592
GACCGGGCTTGGGTTCTAACCTGTTGCCT (site GACCGTGCTAG)	0.268
GACCGTCCTTGGGTTCTAACCTGTTGCAT (site GACCGTCCTAA)	0.167
GACCGTCCTTGGGTTCTAACCTGTTGCAT (site GACCGTCCTAC)	0.479
GACCGTCCTTGGGTTCTAACCTGTTGCAT (site GACCGTCCTAG)	0.54
GACCGTCCTTGGGTTCTAACCTGTTGCAT (site GACCGTCCTAT)	1.26
GACCGTCCTTGGGTTCTAACCTGTTGCCT (site GACCGTCCTAA)	0.0128
GACCGTCCTTGGGTTCTAACCTGTTGCCT (site GACCGTCCTAC)	0.1
GACCGTCCTTGGGTTCTAACCTGTTGCCT (site GACCGTCCTAG)	1
GACCGTCCTTGGGTTCTAACCTGTTGCCT (site GACCGTCCTAT)	0.263
GACGGATCTTGGGTTCTAACCTGTTGCAT (site GACGGATCTAA)	0.191
GACGGATCTTGGGTTCTAACCTGTTGCAT (site GACGGATCTAC)	0.269
GACGGATCTTGGGTTCTAACCTGTTGCAT (site GACGGATCTAG)	0.233
GACGGATCTTGGGTTCTAACCTGTTGCAT (site GACGGATCTAT)	1.09

Sequence	recombinant barcode read abundance (log10)
GACGGATCTTGGGTTCTAACCTGTTGCGT (site GACGGATCTAA)	0.0403
GACGGATCTTGGGTTCTAACCTGTTGCGT (site GACGGATCTAC)	0.705
GACGGATCTTGGGTTCTAACCTGTTGCGT (site GACGGATCTAG)	0.569
GACGGATCTTGGGTTCTAACCTGTTGCGT (site GACGGATCTAT)	1.35
GACGGCACTTGGGTTCTAACCTGTTGCCT (site CGGCTACCTCC)	0.0844
GACGGCACTTGGGTTCTAACCTGTTGCCT (site GACGGCACTAG)	0.567
GACGTGCCTTGGGTTCTAACCTGTTGCCG (site CTTAGTACTAT)	0.11
GACGTGCCTTGGGTTCTAACCTGTTGCCG (site GACGTGCCTCG)	1.77
GACTAAGCTTGGGTTCTAACCTGTTGCGG (site CTGGGGTCTAA)	0.0398
GACTAAGCTTGGGTTCTAACCTGTTGCGG (site GACTAAGCTCC)	2.39
GACTCTCCTTGGGTTCTAACCTGTTGCAG (site GACTCTCCTCA)	0.147
GACTCTCCTTGGGTTCTAACCTGTTGCAG (site GACTCTCCTCT)	0.0267
GACTGAGCTTGGGTTCTAACCTGTTGCGG (site AGACAGTCTTG)	0.046
GACTGAGCTTGGGTTCTAACCTGTTGCGG (site GACTGAGCTCC)	2.26
GACTGGGCTTGGGTTCTAACCTGTTGCTG (site GACTGGCCTAA)	0.239
GACTGGGCTTGGGTTCTAACCTGTTGCTG (site GACTGGGCTCA)	1.58
GACTGTCCTTGGGTTCTAACCTGTTGCGA (site GACCGTCCTTG)	0.372
GACTGTCCTTGGGTTCTAACCTGTTGCGA (site GACTGTCCTTC)	1.8
GACTGTTCTTGGGTTCTAACCTGTTGCCT (site GACTGTTCTAG)	0.13
GACTGTTCTTGGGTTCTAACCTGTTGCCT (site GCCTGTTCTAG)	0.0949
GACTGTTCTTGGGTTCTAACCTGTTGCCT (site GGCTGTTCTAG)	0.202
GACTGTTCTTGGGTTCTAACCTGTTGCCT (site GTCTGTTCTAG)	0.0588

Sequence	recombinant barcode read abundance (log10)
GACTTGGCTTGGGTTCTAACCTGTTGCCT (site GACTTGACTAG)	0.0256
GACTTGGCTTGGGTTCTAACCTGTTGCCT (site GACTTGCCTAG)	0.146
GACTTGGCTTGGGTTCTAACCTGTTGCCT (site GACTTGGCTAG)	0.146
GACTTGGCTTGGGTTCTAACCTGTTGCCT (site GACTTGTCTAG)	0.124
GAGAAATCTTGGGTTCTAACCTGTTGCCT (site GAGAAATCTAG)	0.59
GAGAAATCTTGGGTTCTAACCTGTTGCCT (site GAGACATCTAG)	0.249
GAGAAATCTTGGGTTCTAACCTGTTGCCT (site GAGAGATCTAG)	0.0526
GAGAAATCTTGGGTTCTAACCTGTTGCCT (site GAGATATCTAG)	0.0612
GAGAAGTCTTGGGTTCTAACCTGTTGCCT (site GAGAAGTCTAG)	1.93
GAGAAGTCTTGGGTTCTAACCTGTTGCCT (site GAGCAGTCTAG)	0.133
GAGAAGTCTTGGGTTCTAACCTGTTGCCT (site GAGGAGTCTAG)	0.115
GAGAAGTCTTGGGTTCTAACCTGTTGCCT (site GAGTAGTCTAG)	0.404
GAGACAGCTTGGGTTCTAACCTGTTGCCT (site GAAACAGCTAG)	0.367
GAGACAGCTTGGGTTCTAACCTGTTGCCT (site GACACAGCTAG)	0.0512
GAGACAGCTTGGGTTCTAACCTGTTGCCT (site GAGACAGCTAG)	1.54
GAGACAGCTTGGGTTCTAACCTGTTGCCT (site GATACAGCTAG)	0.504
GAGACGGCTTGGGTTCTAACCTGTTGCTT (site GAGACGGCTAA)	1.22
GAGACGGCTTGGGTTCTAACCTGTTGCTT (site GAGCCGGCTAA)	0.193
GAGACGGCTTGGGTTCTAACCTGTTGCTT (site GAGGCGGCTAA)	0.424
GAGACGGCTTGGGTTCTAACCTGTTGCTT (site GAGTCGGCTAA)	0.206
GAGACTCCTTGGGTTCTAACCTGTTGCAC (site GAGACTCCTCT)	0.437
GAGACTCCTTGGGTTCTAACCTGTTGCAC (site GAGACTCCTGT)	1.17

Sequence	recombinant barcode read abundance (log10)
GAGACTCCTTGGGTTCTAACCTGTTGCAG (site GAGACTCCTCT)	0.956
GAGACTCCTTGGGTTCTAACCTGTTGCAG (site GAGACTCCTGT)	0.509
GAGACTCCTTGGGTTCTAACCTGTTGCTA (site GAGACTCCTTA)	0.392
GAGACTCCTTGGGTTCTAACCTGTTGCTA (site GCGACTCCTTA)	0.0503
GAGACTGCTTGGGTTCTAACCTGTTGCCT (site GAAACTGCTAG)	0.291
GAGACTGCTTGGGTTCTAACCTGTTGCCT (site GACACTGCTAG)	0.068
GAGACTGCTTGGGTTCTAACCTGTTGCCT (site GAGACTGCTAG)	0.865
GAGACTGCTTGGGTTCTAACCTGTTGCCT (site GATACTGCTAG)	0.0802
GAGAGCACTTGGGTTCTAACCTGTTGCCA (site GAGAGCACTTG)	1.23
GAGAGCACTTGGGTTCTAACCTGTTGCCA (site GAGGGCACTTG)	0.329
GAGAGGACTTGGGTTCTAACCTGTTGCTT (site GAGAGGACTAA)	1.86
GAGAGGACTTGGGTTCTAACCTGTTGCTT (site GATAGAACTAA)	0.0753
GAGATATCTTGGGTTCTAACCTGTTGCCT (site GAGAAATCTAG)	0.223
GAGATATCTTGGGTTCTAACCTGTTGCCT (site GAGACATCTAG)	0.339
GAGATATCTTGGGTTCTAACCTGTTGCCT (site GAGAGATCTAG)	0.217
GAGATATCTTGGGTTCTAACCTGTTGCCT (site GAGATATCTAG)	2.07
GAGATCCCTTGGGTTCTAACCTGTTGCCA (site GAGATCCCTTG)	1.22
GAGATCCCTTGGGTTCTAACCTGTTGCCA (site GGGGTCCCTTG)	0.235
GAGATCCCTTGGGTTCTAACCTGTTGCTA (site GAGATCCCTCA)	0.427
GAGATCCCTTGGGTTCTAACCTGTTGCTA (site GAGATCCCTTA)	1.93
